# US8772480B2, “Inhibitors of PI3 kinase and/or mTOR” (priority 2009, dated 2014)
# Key:
# Format in all cases: biochemical
# [1] = target: ProfilerPro Kinase Selectivity Assay Kit kinases (Homo sapiens, UniProt P27361); settings: ERK1; 1 μM compound concentration
# Protocol: (§1) Compounds were profiled using a LabChip® EZ Reader II platform and a ProfilerPro Kinase Selectivity Assay Kit (Caliper Lifesciences Inc., Hopkinton, Mass.). Compounds were tested at a concentration of 1 M in duplicate, with mean data reported as percent of control (POC).
# [2] = target: ProfilerPro Kinase Selectivity Assay Kit kinases (Homo sapiens, UniProt Q9BZL6); settings: PKD2; 1 μM compound concentration
# Protocol: as §1
# [3] = target: ProfilerPro Kinase Selectivity Assay Kit kinases (Homo sapiens, UniProt Q16566); settings: CAMK4; 1 μM compound concentration
# Protocol: as §1
# [4] = target: ProfilerPro Kinase Selectivity Assay Kit kinases (Homo sapiens, UniProt Q13188); settings: MST2; 1 μM compound concentration
# Protocol: as §1
# [5] = target: ProfilerPro Kinase Selectivity Assay Kit kinases (Homo sapiens, UniProt P36888); settings: FLT3; 1 μM compound concentration
# Protocol: as §1
# [6] = target: ProfilerPro Kinase Selectivity Assay Kit kinases (Homo sapiens, UniProt O00141); settings: SGK1; 1 μM compound concentration
# Protocol: as §1
# [7] = target: ProfilerPro Kinase Selectivity Assay Kit kinases (Homo sapiens, UniProt O96017); settings: CHK2; 1 μM compound concentration
# Protocol: as §1
# [8] = target: ProfilerPro Kinase Selectivity Assay Kit kinases (Homo sapiens, UniProt P23443); settings: p70S6K; 1 μM compound concentration
# Protocol: as §1
# [9] = target: ProfilerPro Kinase Selectivity Assay Kit kinases (Homo sapiens, UniProt P24941); settings: CDK2; 1 μM compound concentration
# Protocol: as §1
# [10] = target: ProfilerPro Kinase Selectivity Assay Kit kinases (Homo sapiens, UniProt P43405); settings: SYK; 1 μM compound concentration
# Protocol: as §1
# [11] = target: ProfilerPro Kinase Selectivity Assay Kit kinases (Homo sapiens, UniProt Q16539); settings: p38 alpha; 1 μM compound concentration
# Protocol: as §1
# [12] = target: ProfilerPro Kinase Selectivity Assay Kit kinases (Homo sapiens, UniProt Q05513); settings: PKC zeta; 1 μM compound concentration
# Protocol: as §1
# [13] = target: ProfilerPro Kinase Selectivity Assay Kit kinases (Homo sapiens, UniProt P00519); settings: ABL; 1 μM compound concentration
# Protocol: as §1
# [14] = target: ProfilerPro Kinase Selectivity Assay Kit kinases (Homo sapiens, UniProt P07948); settings: LYN; 1 μM compound concentration
# Sequence of ProfilerPro Kinase Selectivity Assay Kit kinases (Homo sapiens, UniProt P07948) (P07948 2-512 limits assumed): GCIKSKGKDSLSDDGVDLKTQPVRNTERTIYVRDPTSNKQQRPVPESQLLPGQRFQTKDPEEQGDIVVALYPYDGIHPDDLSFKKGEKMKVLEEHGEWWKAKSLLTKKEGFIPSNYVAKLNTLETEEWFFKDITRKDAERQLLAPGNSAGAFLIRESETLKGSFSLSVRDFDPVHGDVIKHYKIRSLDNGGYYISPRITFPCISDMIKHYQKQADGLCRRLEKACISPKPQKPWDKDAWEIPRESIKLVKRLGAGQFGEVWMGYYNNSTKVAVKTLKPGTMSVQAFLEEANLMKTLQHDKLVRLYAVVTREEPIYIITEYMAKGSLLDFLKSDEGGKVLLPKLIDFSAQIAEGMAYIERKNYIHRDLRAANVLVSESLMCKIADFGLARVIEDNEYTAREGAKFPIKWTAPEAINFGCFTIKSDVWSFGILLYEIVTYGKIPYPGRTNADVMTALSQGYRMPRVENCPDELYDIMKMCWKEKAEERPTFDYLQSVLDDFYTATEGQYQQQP
# Protocol: as §1
# [15] = target: ProfilerPro Kinase Selectivity Assay Kit kinases (Homo sapiens, UniProt P06239); settings: LCK; 1 μM compound concentration
# Sequence of ProfilerPro Kinase Selectivity Assay Kit kinases (Homo sapiens, UniProt P06239) (P06239 2-509 limits assumed): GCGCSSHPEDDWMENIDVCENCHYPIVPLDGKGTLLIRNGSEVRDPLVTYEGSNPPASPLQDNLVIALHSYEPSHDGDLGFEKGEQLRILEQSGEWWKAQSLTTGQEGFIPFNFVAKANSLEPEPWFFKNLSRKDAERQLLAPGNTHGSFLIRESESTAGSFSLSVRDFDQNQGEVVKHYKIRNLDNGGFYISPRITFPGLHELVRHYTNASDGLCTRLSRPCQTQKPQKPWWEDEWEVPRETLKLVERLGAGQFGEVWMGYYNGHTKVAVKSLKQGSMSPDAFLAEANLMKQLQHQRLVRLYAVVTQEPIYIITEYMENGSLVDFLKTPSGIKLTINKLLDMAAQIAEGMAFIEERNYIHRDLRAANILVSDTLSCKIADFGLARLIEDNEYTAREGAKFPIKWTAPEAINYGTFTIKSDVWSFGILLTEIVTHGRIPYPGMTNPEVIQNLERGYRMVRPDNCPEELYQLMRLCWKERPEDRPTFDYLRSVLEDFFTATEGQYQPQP
# Protocol: as §1
# [16] = target: ProfilerPro Kinase Selectivity Assay Kit kinases (Homo sapiens, UniProt O75582); settings: MSK1; 1 μM compound concentration
# Protocol: as §1
# [17] = target: ProfilerPro Kinase Selectivity Assay Kit kinases (Homo sapiens, UniProt P08069); settings: IGF1R; 1 μM compound concentration
# Protocol: as §1
# [18] = target: ProfilerPro Kinase Selectivity Assay Kit kinases (Homo sapiens, UniProt P12931); settings: SRC; 1 μM compound concentration
# Protocol: as §1
# [19] = target: ProfilerPro Kinase Selectivity Assay Kit kinases (Homo sapiens, UniProt P31749); settings: AKT1; 1 μM compound concentration
# Protocol: as §1
# [20] = target: ProfilerPro Kinase Selectivity Assay Kit kinases (Homo sapiens, UniProt P28482); settings: ERK2; 1 μM compound concentration
# Sequence of ProfilerPro Kinase Selectivity Assay Kit kinases (Homo sapiens, UniProt P28482) (P28482 2-360 limits assumed): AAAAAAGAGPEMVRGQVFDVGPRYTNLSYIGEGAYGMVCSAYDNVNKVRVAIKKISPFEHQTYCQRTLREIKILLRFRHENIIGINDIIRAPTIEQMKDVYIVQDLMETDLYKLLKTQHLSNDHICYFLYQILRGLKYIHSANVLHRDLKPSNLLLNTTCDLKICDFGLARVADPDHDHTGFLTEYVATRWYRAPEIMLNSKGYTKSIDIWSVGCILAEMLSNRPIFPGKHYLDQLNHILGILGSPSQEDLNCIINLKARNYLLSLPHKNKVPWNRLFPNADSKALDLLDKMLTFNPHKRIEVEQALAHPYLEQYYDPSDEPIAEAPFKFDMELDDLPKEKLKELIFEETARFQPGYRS
# Protocol: as §1
# [21] = target: ProfilerPro Kinase Selectivity Assay Kit kinases (Homo sapiens, UniProt P35968); settings: KDR; 1 μM compound concentration
# Protocol: as §1
# [22] = target: ProfilerPro Kinase Selectivity Assay Kit kinases (Homo sapiens, UniProt O14965); settings: AURORA A; 1 μM compound concentration
# Protocol: as §1
# [23] = target: ProfilerPro Kinase Selectivity Assay Kit kinases (Homo sapiens, UniProt Q13976); settings: PKGa2; 1 μM compound concentration
# Sequence of ProfilerPro Kinase Selectivity Assay Kit kinases (Homo sapiens, UniProt Q13976) (Q13976 2-671 limits assumed): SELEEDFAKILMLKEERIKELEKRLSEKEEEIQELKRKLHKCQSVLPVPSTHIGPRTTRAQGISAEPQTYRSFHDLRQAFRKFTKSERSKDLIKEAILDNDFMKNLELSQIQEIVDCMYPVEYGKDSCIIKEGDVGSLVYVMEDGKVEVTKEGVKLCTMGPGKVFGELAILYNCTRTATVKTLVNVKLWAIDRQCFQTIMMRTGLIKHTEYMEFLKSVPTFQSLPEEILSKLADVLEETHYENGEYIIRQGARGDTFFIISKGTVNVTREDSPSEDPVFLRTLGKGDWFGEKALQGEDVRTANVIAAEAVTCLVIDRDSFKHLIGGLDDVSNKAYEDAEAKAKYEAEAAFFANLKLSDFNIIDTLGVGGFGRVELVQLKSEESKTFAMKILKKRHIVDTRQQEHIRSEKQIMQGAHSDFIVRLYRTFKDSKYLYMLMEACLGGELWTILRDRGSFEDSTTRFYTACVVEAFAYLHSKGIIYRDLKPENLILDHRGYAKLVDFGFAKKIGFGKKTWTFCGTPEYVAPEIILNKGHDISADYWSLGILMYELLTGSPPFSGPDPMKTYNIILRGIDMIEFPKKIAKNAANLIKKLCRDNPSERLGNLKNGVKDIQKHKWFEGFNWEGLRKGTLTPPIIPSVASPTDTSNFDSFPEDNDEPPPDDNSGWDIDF
# Protocol: as §1
# [24] = target: ProfilerPro Kinase Selectivity Assay Kit kinases (Homo sapiens, UniProt P08581); settings: cMET; 1 μM compound concentration
# Sequence of ProfilerPro Kinase Selectivity Assay Kit kinases (Homo sapiens, UniProt P08581) (P08581 25-1390 limits assumed): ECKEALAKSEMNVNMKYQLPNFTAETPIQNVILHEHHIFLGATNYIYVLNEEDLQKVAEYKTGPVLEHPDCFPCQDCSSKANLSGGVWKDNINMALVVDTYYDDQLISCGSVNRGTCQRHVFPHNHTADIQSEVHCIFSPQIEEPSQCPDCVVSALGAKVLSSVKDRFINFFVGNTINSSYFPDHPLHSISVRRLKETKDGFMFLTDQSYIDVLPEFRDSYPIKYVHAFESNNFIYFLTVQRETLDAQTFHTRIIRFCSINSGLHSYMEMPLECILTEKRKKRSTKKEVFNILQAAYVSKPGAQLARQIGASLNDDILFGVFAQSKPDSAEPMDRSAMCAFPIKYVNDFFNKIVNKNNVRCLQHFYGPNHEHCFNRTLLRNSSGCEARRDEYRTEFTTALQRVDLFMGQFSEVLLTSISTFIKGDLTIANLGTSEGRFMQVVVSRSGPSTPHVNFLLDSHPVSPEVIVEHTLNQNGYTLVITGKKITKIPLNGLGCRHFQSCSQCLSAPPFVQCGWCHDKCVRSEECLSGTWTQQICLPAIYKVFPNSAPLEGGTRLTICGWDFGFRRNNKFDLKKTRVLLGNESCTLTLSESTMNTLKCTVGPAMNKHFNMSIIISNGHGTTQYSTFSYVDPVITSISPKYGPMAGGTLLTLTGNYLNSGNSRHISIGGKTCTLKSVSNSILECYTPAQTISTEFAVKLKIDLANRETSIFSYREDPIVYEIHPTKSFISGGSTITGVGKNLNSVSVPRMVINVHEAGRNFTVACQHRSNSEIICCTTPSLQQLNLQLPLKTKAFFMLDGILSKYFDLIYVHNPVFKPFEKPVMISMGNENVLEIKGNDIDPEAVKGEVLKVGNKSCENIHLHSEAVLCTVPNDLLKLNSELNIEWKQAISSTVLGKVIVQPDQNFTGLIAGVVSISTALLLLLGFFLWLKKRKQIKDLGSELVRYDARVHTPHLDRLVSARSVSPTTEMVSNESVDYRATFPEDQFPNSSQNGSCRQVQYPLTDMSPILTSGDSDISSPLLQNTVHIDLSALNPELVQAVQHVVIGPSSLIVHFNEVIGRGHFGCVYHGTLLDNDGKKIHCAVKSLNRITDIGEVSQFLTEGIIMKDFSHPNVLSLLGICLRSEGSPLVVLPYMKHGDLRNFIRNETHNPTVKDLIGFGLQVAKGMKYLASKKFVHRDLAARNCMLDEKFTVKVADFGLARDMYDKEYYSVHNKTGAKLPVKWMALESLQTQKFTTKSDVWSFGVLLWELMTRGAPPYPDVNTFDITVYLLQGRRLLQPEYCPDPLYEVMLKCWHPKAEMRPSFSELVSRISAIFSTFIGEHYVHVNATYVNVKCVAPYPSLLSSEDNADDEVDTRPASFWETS
# Protocol: as §1
# [25] = target: ProfilerPro Kinase Selectivity Assay Kit kinases (Homo sapiens, UniProt P04049); settings: cRAF; 1 μM compound concentration
# Protocol: as §1
# [26] = target: ProfilerPro Kinase Selectivity Assay Kit kinases (Homo sapiens, UniProt P11362); settings: FGFR1; 1 μM compound concentration
# Sequence of ProfilerPro Kinase Selectivity Assay Kit kinases (Homo sapiens, UniProt P11362) (P11362 22-822 limits assumed): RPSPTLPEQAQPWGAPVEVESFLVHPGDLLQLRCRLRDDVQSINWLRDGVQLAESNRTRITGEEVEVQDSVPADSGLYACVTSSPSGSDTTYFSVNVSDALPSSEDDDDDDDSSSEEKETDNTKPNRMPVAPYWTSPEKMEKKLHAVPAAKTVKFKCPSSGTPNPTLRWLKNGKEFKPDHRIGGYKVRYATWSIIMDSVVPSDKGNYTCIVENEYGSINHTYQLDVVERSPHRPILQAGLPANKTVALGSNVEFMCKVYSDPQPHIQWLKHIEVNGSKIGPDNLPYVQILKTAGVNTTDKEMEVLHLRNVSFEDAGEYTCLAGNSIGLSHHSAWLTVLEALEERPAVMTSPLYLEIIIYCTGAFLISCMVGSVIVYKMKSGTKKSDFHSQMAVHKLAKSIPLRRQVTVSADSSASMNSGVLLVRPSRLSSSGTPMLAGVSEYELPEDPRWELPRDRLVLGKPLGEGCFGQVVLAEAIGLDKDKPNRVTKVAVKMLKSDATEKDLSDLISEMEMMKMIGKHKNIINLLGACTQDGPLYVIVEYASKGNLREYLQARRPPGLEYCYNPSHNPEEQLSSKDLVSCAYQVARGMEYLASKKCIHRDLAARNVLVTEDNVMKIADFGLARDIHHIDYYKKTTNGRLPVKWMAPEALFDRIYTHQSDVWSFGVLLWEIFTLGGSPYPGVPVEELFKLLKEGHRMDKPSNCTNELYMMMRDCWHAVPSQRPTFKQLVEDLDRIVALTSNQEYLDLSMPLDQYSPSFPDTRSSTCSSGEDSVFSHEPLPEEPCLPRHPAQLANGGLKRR
# Protocol: as §1
# [27] = target: ProfilerPro Kinase Selectivity Assay Kit kinases (Homo sapiens, UniProt Q15418); settings: RSK1; 1 μM compound concentration
# Protocol: as §1
# [28] = system: ProfilerPro Kinase Selectivity Assay Kit kinases; settings: 1 μM compound concentration
# Protocol: as §1
# [29] = target: ProfilerPro Kinase Selectivity Assay Kit kinases (Homo sapiens, UniProt P06241); settings: FYN; 1 μM compound concentration
# Sequence of ProfilerPro Kinase Selectivity Assay Kit kinases (Homo sapiens, UniProt P06241) (P06241 2-537 limits assumed): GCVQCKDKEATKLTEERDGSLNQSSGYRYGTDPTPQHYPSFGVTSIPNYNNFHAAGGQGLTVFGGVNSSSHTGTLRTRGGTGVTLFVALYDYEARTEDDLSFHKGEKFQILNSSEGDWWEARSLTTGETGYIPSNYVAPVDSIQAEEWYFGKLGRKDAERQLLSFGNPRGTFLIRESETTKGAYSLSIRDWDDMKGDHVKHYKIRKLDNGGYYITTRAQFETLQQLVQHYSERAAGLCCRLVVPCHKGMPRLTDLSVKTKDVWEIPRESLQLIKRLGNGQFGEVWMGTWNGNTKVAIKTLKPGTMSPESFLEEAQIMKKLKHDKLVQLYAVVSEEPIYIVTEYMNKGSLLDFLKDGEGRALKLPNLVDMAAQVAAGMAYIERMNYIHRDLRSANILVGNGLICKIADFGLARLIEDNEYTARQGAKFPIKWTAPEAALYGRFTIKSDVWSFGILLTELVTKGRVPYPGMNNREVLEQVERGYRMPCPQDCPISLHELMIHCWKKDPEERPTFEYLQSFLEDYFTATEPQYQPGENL
# Protocol: as §1
# [30] = target: ProfilerPro Kinase Selectivity Assay Kit kinases (Homo sapiens, UniProt Q13627); settings: DYRK1a; 1 μM compound concentration
# Protocol: as §1
# [31] = target: ProfilerPro Kinase Selectivity Assay Kit kinases (Homo sapiens, UniProt P49841); settings: GSK3 beta; 1 μM compound concentration
# Protocol: as §1
SMILES,POC (Percent of control) ERK1 [1] [POC],POC (Percent of control) PKD2 [2] [POC],POC (Percent of control) CAMK4 [3] [POC],POC (Percent of control) MST2 [4] [POC],POC (Percent of control) FLT3 [5] [POC],POC (Percent of control) SGK1 [6] [POC],POC (Percent of control) CHK2 [7] [POC],POC (Percent of control) p70S6K [8] [POC],POC (Percent of control) CDK2 [9] [POC],POC (Percent of control) SYK [10] [POC],POC (Percent of control) p38 alpha [11] [POC],POC (Percent of control) PKC zeta [12] [POC],POC (Percent of control) ABL [13] [POC],POC (Percent of control) LYN [14] [POC],POC (Percent of control) LCK [15] [POC],POC (Percent of control) MSK1 [16] [POC],POC (Percent of control) IGF1R [17] [POC],POC (Percent of control) SRC [18] [POC],POC (Percent of control) AKT1 [19] [POC],POC (Percent of control) ERK2 [20] [POC],also measured
"COc1ccc(Nc2ncccc2-c2ncnc3[nH]cnc23)cn1 [Example 20, N-(6-Methoxypyridin-3-yl)-3-(9H-Purin-6-yl)Pyridin-2-Amine]",96,100,100,95,120,95,103,104,96,107,93,99,99,92,101,93,93,95,105,101,POC (Percent of control) KDR [21]: 93 POC; POC (Percent of control) AURORA A [22]: 96 POC; POC (Percent of control) PKGa2 [23]: 98 POC; POC (Percent of control) cMET [24]: 106 POC; POC (Percent of control) cRAF [25]: 59 POC; POC (Percent of control) FGFR1 [26]: 94 POC; POC (Percent of control) RSK1 [27]: 97 POC; POC (Percent of control) AMPK [28]: 93 POC; POC (Percent of control) CAMK2 [28]: 111 POC; POC (Percent of control) PKC beta2 [28]: 104 POC; POC (Percent of control) TAK1 [28]: 99 POC; POC (Percent of control) FYN [29]: 101 POC; POC (Percent of control) DYRK1a [30]: 102 POC; POC (Percent of control) GSK3 beta [31]: 95 POC
"Cc1nc(N)nc(-c2cccnc2Nc2cccc(O)c2)n1 [Example 23, 3-(3-(4-Amino-6-Methyl-1,3,5-Triazin-2-yl)Pyridin-2-Ylamino)Phenol]",104,104,98,101,106,102,101,112,106,110,104,102,97,101,97,112,101,99,103,103,POC (Percent of control) KDR [21]: 105 POC; POC (Percent of control) AURORA A [22]: 112 POC; POC (Percent of control) PKGa2 [23]: 87 POC; POC (Percent of control) cMET [24]: 104 POC; POC (Percent of control) cRAF [25]: 108 POC; POC (Percent of control) FGFR1 [26]: 99 POC; POC (Percent of control) RSK1 [27]: 103 POC; POC (Percent of control) AMPK [28]: 98 POC; POC (Percent of control) CAMK2 [28]: 108 POC; POC (Percent of control) PKC beta2 [28]: 92 POC; POC (Percent of control) TAK1 [28]: 102 POC; POC (Percent of control) FYN [29]: 96 POC; POC (Percent of control) DYRK1a [30]: 93 POC; POC (Percent of control) GSK3 beta [31]: 96 POC
"c1cnc(Nc2cccc3[nH]ccc23)c(-c2ncnc3[nH]cnc23)c1 [Example 19, N-(3-(9H-Purin-6-yl)Pyridin-2-yl)-1H-Indol-4-Amine]",93,97,77,82,25,88,18,91,90,15,86,98,19,50,70,106,94,23,94,94,POC (Percent of control) KDR [21]: 29 POC; POC (Percent of control) AURORA A [22]: 24 POC; POC (Percent of control) PKGa2 [23]: 93 POC; POC (Percent of control) cMET [24]: 89 POC; POC (Percent of control) cRAF [25]: 56 POC; POC (Percent of control) FGFR1 [26]: 51 POC; POC (Percent of control) RSK1 [27]: 87 POC; POC (Percent of control) AMPK [28]: 57 POC; POC (Percent of control) CAMK2 [28]: 84 POC; POC (Percent of control) PKC beta2 [28]: 94 POC; POC (Percent of control) TAK1 [28]: 90 POC; POC (Percent of control) FYN [29]: 33 POC; POC (Percent of control) DYRK1a [30]: 66 POC; POC (Percent of control) GSK3 beta [31]: 79 POC
